Assay type in all cases: in vivo, rat
Experiment [1] has as its system ICH rats. The experiment can be described thus: Short-term neurological function of ICH rats (Garcia score, beam balance test). The following applies: ICH model; for Beam balance score / Garcia score: 24 hours after modeling. The protocol:
Experimental grouping: At 2 h after endovascular perforation or collagenase VII injection, Zea Longa score was used to evaluate the neurological function of rats. Successful model rats were randomly divided into groups for administration.
All groups were administrated through the tail vein injection except for group N administrated intraperitoneally.
The rats were fasted for 12 hours before operation, and were anesthetized with 4% isoflurane, and kept anesthetized with 2% isoflurane. The animals were fixed in the prone position in a stereotaxic apparatus with the body temperature maintained at about 37° C. A traditional skin incision of the head was prepared along the midline. According to the stereotaxic atlas of the rat brain translated by Zhuge Qichao (George Paxinos, Charles Watson, Paxinos, Watson, & Zhuge Qichao. The Rat Brain in Stereotaxic Coordinates [M]. People's Medical Publishing House, 2005), the right caudate nucleus of the rat was determined as 0.0 mm anterior, 3.0 mm lateral to the bregma, and 5.5 mm ventral to the cortical surface. After labeling, we drilled an open window in the skull, and 1 μL of 0.5 U collagenase VII was slowly injected for 5 minutes with a microinjector. After the injection, the needle was stagnated for 8 minutes and slowly withdrawn. Then the scalp was sutured after the burr hole of skull was sealed with a sterile bone wax, and the rats were returned to the cage for normal feeding. The sham group conducted the same procedure as the model group, but received an equal volume of physiological saline into the caudate nucleus.
According to Zea Longa's neurological function score, the rats were scored 2 hours after the operation when they were awake from anesthesia. Successful model rats with a score of 1 to 3 points were enrolled in the group: • 0 points: no neurological deficits with normal activity; • 1 point: inability to fully extend the contralateral forepaw; • 2 points: the animal appears to turn in circles when crawling; • 3 points: the animal tends to lean to the hemiplegic side; • 4 points: the animal cannot walk spontaneously or loses consciousness. 1.4 Assessment of Short-Term Neurological Function
The neurological function of rats was comprehensively evaluated with Garcia score and beam balance test 24 hours after modeling. The criteria of Garcia score are shown in Table 1, which evaluates the movement, sensation, climbing and limb symmetry of the rats with the score range of 3 to 18 points. The lower the score, the more severe the neurological injury. The criteria of the beam balance test are shown in Table 2, which evaluated the proprioception and body coordination of rats with the score range of 0 to 6 points. The higher the score, the more severe the neurological injury. Scoring was done independently by a technician blinded to the modeling and drug administration.

For experiment [2], the system named is SAH rats. The experiment can be described thus: Secondary epilepsy in SAH rats (Racine score, seizures). The following applies: within 24 hours after SAH. The protocol:
The experimental materials, grouping, modeling method and administration protocol were the same as those in the effect embodiment 1, and the seizures of rats in each group were observed within 24 hours after SAH.

For experiment [3], the system named is SAH rats. Kind of experiment: Brain water content and blood-brain barrier permeability (Evans blue), SAH rats. Conditions: 24 hours after operation, group M, medium-dose intravenous, vs model group. The protocol: (§1) After completing the evaluation of 24-hour short-term neurological function, 4% Evans blue solution (2.5 mL/kg) was injected into the right caudal vein of the rats. After circulated for 1 hour, the rats were deeply anesthetized and transcardinally perfused with 100 mL of normal saline to collect the rats' brain. The whole brain was divided into four groups: left hemisphere (LH), right hemisphere (RH), cerebellum (Cb) and brainstem (BS). The left and right hemispheres were coronally divided into two parts, one part was immediately weighed (wet weight) with a balance with an accuracy of 0.1 mg, dried in an oven at 105° C. for 24 hours and weighed again (dry weight). The brain water content was calculated as [(wet weight−dry weight)/wet weight]×100%. The other part of the brain tissue was weighed (wet weight) and emerged into 10 times the volume of pure formamide, incubated at 60° C. for 48 hours, centrifuged at 25° C. for 30 min (10,000 rpm/min). The Evans blue in the supernatant was measured at 622 nm by a UV spectrophotometry, and calculated with a standard curve for quantification. The amount of Evans blue was expressed as μg/g of brain tissue (wet weight).

The test system of experiment [4] is ICH rats. Kind of experiment: Brain water content and blood-brain barrier permeability (Evans blue), ICH rats. The following applies: 24 hours after operation, group M, medium-dose intravenous, vs model group. The protocol: as §1
The mark [5] stands for this setting: group H, α-asarone emulsion injection 30 mg/kg tail vein.
Where [6] appears, read: group L, α-asarone emulsion injection 7.5 mg/kg tail vein.
Where [7] appears, read: group M, α-asarone emulsion injection 15 mg/kg tail vein.
[8] abbreviates: group O, α-asarone emulsion oral administration 40 mg/kg.

Data on one molecule can be found in patent US12636260B2, “Application of α-asarone in preparation of medicine for preventing or treating hemorrhagic stroke” (CHENGDU XINRUI TAIKANG TECHNOLOGY CO., LTD., priority 2021, dated 2026).

With `C/C=C/c1cc(OC)c(OC)cc1OC` [α-asarone, trans-2,4,5-trimethoxy-1-propenylbenzene], the Beam balance score in the experiment with ICH rats [1] (setting [5]) worked out at 3.31; with ICH rats [1] (setting [6]), 3.16; with ICH rats [1] (setting [7]), 3.09. Besides, the Garcia score with ICH rats [1] (setting [5]) turned out to be 10.01; in the experiment with ICH rats [1] (setting [6]), 10.60; in the experiment on ICH rats [1] (setting [7]), 10.68. Further, the “curative effect compared with group V (vinpocetine) and group N (nimodipine)” value in the experiment on ICH rats [1] (groups L and M, 7.5 and 15 mg/kg) is “better”. Further, the “incidence of secondary epilepsy” value in the experiment with SAH rats [2] is given as “significantly reduce”. Besides, the “Clonic seizures (%)” value worked out at 8.0% in the experiment on SAH rats [2] (setting [5]), 6.7% in the experiment on SAH rats [2] (setting [6]), 5.6% in the experiment with SAH rats [2] (setting [7]) and 15.4% in the experiment with SAH rats [2] (setting [8]). The Racine score was found to be 0.73 ± 1.44 with SAH rats [2] (setting [5]), 0.53 ± 1.46 with SAH rats [2] (setting [6]), 0.44 ± 1.34 in the experiment on SAH rats [2] (setting [7]) and 0.77 ± 1.59 in the experiment on SAH rats [2] (setting [8]). The “Tonic seizures (%)” value in the experiment with SAH rats [2] (setting [5]) was 6.7%; with SAH rats [2] (setting [6]) it was 6.7%; in the experiment on SAH rats [2] (setting [7]), 5.6%; in the experiment on SAH rats [2] (setting [8]), 7.7%. The Evans blue content entry with SAH rats [3] and in the experiment on ICH rats [4] was “significantly reduce” throughout. Moreover, the brain water content entry in the experiment on SAH rats [3] and with ICH rats [4] was “significantly reduce” in each case.
